ChEMBL document CHEMBL1145374, “Discovery of para-alkylthiophenoxyacetic acids as a novel series of potent and selective PPARdelta agonists” (Bioorg Med Chem Lett, 2007)

Tests used:
[1] = biological target: T1, Peroxisome proliferator-activated receptor alpha (Homo sapiens, UniProt Q07869); assay: Activity at human PPARalpha receptor by cell based transactivation assay
T1 sequence (Q07869 whole entry): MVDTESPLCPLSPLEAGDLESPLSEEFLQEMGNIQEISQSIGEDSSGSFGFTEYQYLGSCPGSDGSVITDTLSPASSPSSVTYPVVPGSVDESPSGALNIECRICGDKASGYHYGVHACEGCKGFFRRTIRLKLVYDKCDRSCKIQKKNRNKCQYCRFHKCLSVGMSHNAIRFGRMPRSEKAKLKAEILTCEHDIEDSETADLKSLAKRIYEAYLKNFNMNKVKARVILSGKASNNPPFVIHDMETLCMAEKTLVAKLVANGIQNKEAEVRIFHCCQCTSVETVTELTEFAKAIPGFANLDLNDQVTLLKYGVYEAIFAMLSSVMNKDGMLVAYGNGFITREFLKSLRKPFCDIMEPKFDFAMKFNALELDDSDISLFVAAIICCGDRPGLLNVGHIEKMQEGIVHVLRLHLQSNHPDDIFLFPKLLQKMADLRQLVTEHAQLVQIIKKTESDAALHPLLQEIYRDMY

[2] = biological target: T2, Peroxisome proliferator-activated receptor delta (Homo sapiens, UniProt Q03181); assay: Agonist activity at human PPARdelta receptor by cell based transactivation assay; assay type: functional
T2 sequence (Q03181 whole entry): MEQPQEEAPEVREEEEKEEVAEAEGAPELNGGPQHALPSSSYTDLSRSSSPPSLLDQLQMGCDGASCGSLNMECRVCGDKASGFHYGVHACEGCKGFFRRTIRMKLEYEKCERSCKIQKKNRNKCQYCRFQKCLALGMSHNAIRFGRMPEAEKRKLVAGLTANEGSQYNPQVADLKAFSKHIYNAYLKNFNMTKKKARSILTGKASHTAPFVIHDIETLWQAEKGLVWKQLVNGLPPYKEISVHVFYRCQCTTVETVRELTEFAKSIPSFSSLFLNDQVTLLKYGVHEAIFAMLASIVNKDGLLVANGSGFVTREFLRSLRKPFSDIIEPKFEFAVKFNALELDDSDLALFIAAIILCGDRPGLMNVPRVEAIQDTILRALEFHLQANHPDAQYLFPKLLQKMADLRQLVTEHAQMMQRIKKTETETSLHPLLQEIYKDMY

[3] = biological target: T3, Peroxisome proliferator-activated receptor gamma (Homo sapiens, UniProt P37231); assay: Activity at human PPARgamma receptor by cell based transactivation assay
T3 sequence (P37231 whole entry): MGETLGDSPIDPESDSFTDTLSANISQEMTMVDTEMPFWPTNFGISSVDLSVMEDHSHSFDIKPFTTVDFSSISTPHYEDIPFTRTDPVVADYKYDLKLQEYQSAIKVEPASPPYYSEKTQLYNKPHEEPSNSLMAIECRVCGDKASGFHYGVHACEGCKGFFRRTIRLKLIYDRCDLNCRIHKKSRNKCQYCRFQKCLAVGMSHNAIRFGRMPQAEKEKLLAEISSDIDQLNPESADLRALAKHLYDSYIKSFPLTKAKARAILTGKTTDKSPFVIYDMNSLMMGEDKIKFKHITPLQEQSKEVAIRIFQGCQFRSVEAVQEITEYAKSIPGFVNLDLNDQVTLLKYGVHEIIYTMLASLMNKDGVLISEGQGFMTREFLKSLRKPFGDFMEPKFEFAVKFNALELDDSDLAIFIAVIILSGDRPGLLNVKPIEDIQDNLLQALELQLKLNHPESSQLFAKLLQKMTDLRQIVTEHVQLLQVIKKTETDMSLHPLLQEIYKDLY

[4] = AUC in rat; assay type: ADME, organism-based; conditions: plasma
[5] = Tmax in rat; assay type: ADME, organism-based; conditions: in vivo
[6] = Half life in rat; assay type: ADME, organism-based; conditions: in vivo
[7] = Cmax in rat; assay type: ADME, organism-based; conditions: in vivo
[8] = Oral bioavailability in rat; assay type: ADME, organism-based; conditions: in vivo

SMILES	EC50 [1]	EC50 [2]	EC50 [3]	also measured
CCOC(COc1ccc(C(F)(F)F)cc1)CSc1ccc(OCC(=O)O)c(C)c1 (stereo not given)	> 1000 nM	3.4 nM	> 1000 nM	
CCC(COc1ccc(C(F)(F)F)cc1)CSc1ccc(OCC(=O)O)c(C)c1 (stereo not given)	> 1000 nM	0.06 nM	> 1000 nM	
CCO[C@H](COc1ccc(C(F)(F)F)cc1)CSc1ccc(OCC(=O)O)c(C)c1	> 1000 nM	1.9 nM	> 1000 nM	
CCOC(CCc1ccc(C(F)(F)F)cc1)CSc1ccc(OCC(=O)O)c(C)c1 (stereo not given)	> 1000 nM		> 1000 nM	
CCOC(COc1ccc(C(F)(F)F)cc1)COc1ccc(OCC(=O)O)c(C)c1 (stereo not given)	> 1000 nM		> 1000 nM	
CCCCOC(COc1ccc(C(F)(F)F)cc1)CSc1ccc(OCC(=O)O)c(C)c1 (stereo not given)	> 1000 nM	7 nM	> 1000 nM	
C=CCOC(COc1ccc(C(F)(F)F)cc1)CSc1ccc(OCC(=O)O)c(C)c1 (stereo not given)	> 1000 nM	3.9 nM	> 1000 nM	
CCO[C@H](COc1ccc(C(F)(F)F)cc1)C[S+]([O-])c1ccc(OCC(=O)O)c(C)c1 (stereo not given in full)	> 1000 nM	> 3000 nM	> 1000 nM	
COC(COc1ccc(C(F)(F)F)cc1)CSc1ccc(OCC(=O)O)c(C)c1 (stereo not given)	> 1000 nM	18.8 nM	> 1000 nM	
Cc1cc(SCC(COc2ccc(C(F)(F)F)cc2)OCc2ccccc2)ccc1OCC(=O)O (stereo not given)	> 1000 nM		> 1000 nM	
COCO[C@H](COc1ccc(C(F)(F)F)cc1)CSc1ccc(OCC(=O)O)c(C)c1	> 1000 nM		> 1000 nM	
COCO[C@@H](COc1ccc(C(F)(F)F)cc1)CSc1ccc(OCC(=O)O)c(C)c1	> 1000 nM	70 nM	> 1000 nM	
CCCC(=O)c1ccc(OC(COc2ccc(C(F)(F)F)cc2)CSc2ccc(OCC(=O)O)c(C)c2)cc1 (stereo not given)	> 1000 nM		> 1000 nM	
CCOCC(COc1ccc(C(F)(F)F)cc1)CSc1ccc(OCC(=O)O)c(C)c1 (stereo not given)	> 1000 nM		> 1000 nM	
Cc1cc(SCC(COc2ccc(C(F)(F)F)cc2)COc2ccc(C(F)(F)F)cc2)ccc1OCC(=O)O	> 1000 nM		> 1000 nM	
CCO[C@@H](COc1ccc(C(F)(F)F)cc1)CSc1ccc(OCC(=O)O)c(C)c1	> 1000 nM	25 nM	> 1000 nM	
CCCOC(COc1ccc(C(F)(F)F)cc1)CSc1ccc(OCC(=O)O)c(C)c1 (stereo not given)	> 1000 nM		> 1000 nM	
Cc1cc(SCC(C)COc2ccc(C(F)(F)F)cc2)ccc1OCC(=O)O (stereo not given)	> 1000 nM	7.4 nM	> 1000 nM	
CC[C@H](COc1ccc(C(F)(F)F)cc1)CSc1ccc(OCC(=O)O)c(C)c1	> 1000 nM	0.03 nM	> 1000 nM	AUC [4]: 13600 ng·h/mL; Tmax [5]: 0.5 h; half-life [6]: 8.2 h; Cmax [7]: 8870 ng/mL; bioavailability [8]: 84%
CSCOC(CCc1ccc(C(F)(F)F)cc1)CSc1ccc(OCC(=O)O)c(C)c1 (stereo not given)	> 1000 nM	15.2 nM	> 1000 nM	
COCOC(COc1ccc(C(F)(F)F)cc1)CSc1ccc(OCC(=O)O)c(C)c1 (stereo not given)	> 1000 nM		> 1000 nM	
Cc1cc(SCC(COc2ccc(C(F)(F)F)cc2)OCC(=O)O)ccc1OCC(=O)O (stereo not given)	> 1000 nM		> 1000 nM	
COc1ccc(OC(COc2ccc(C(F)(F)F)cc2)CSc2ccc(OCC(=O)O)c(C)c2)cc1 (stereo not given)	> 1000 nM		> 1000 nM	
Cc1cc(SCC(O)COc2ccc(C(F)(F)F)cc2)ccc1OCC(=O)O (stereo not given)	> 1000 nM		> 1000 nM	
